Twelve compounds from patent US8895571B2, “Isoindolinone and pyrrolopyridinone derivatives as Akt inhibitors” (Incyte Corporation, priority 2011, dated 2014) can be followed below.

In one test the target is T1, Full length Akt3 (Homo sapiens, UniProt Q9Y243).
T1 construct: Full length Akt1 (cat #P2999), Akt2 (cat #PV3184), Akt3 (cat #PV3185); purchased PerkinElmer PV3185
Put plainly: In vitro Akt kinase enzymatic assay (HTRF), Akt3. It counts as biochemical. Conditions: 0.6 nM Akt3, substrate solution with 5 mM ATP, 25° C. 1 hr. A digest of the protocol: (§1)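 Full-length enzyme (0.4 nM Akt1 or 0.6 nM Akt2/Akt3 in the enzyme solution) was combined with a substrate solution of 0.1 μM ULight-Crosstide plus 5 mM ATP in pH 7.8 HEPES/MgCl2/DTT/Tween20 buffer and reacted 1 hr at 25° C. The EDTA stop contained Eu anti-phospho-Crosstide; IC50 was fitted from 11-point HTRF inhibition curves.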

The target of a further test is T2, Full length Akt2 (Homo sapiens, UniProt P31751).
T2 construct: Full length Akt1 (cat #P2999), Akt2 (cat #PV3184); purchased PerkinElmer PV3184
T2 sequence (P31751 whole entry): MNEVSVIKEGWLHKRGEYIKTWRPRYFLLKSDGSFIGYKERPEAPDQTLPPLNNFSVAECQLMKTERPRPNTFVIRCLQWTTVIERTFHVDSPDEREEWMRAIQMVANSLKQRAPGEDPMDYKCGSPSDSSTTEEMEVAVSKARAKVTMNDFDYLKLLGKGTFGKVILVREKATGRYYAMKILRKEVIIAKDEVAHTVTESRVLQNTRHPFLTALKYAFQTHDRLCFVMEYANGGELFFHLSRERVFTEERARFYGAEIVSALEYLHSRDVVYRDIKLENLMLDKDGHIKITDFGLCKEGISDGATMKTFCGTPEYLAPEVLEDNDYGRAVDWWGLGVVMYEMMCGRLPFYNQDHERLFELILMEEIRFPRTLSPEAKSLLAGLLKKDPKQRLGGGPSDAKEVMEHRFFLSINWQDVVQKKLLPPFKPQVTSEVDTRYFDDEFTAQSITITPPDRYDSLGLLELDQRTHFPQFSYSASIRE
Put plainly: In vitro Akt kinase enzymatic assay (HTRF), Akt2. The class given is biochemical. To be noted: 0.6 nM Akt2, substrate solution with 5 mM ATP, 25° C. 1 hr. A digest of the protocol: as §1
(In TR-FRET formats the signal depends on donor and acceptor labels being close together.)

The next test concerns the target T3, Full length PKA (Homo sapiens, UniProt P17612).
T3 construct: Full length PKA (cat #P2912); purchased Invitrogen P2912
Kind of test: PKA in vitro enzymatic assay (HTRF). It counts as biochemical. Conditions: 0.035 nM enzyme solution, substrate solution with 5 mM ATP, 25° C. 1 hr. In short, it runs like this:
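IC50 came from curve fitting of percent inhibition across an 11-point, 3-fold compound series, with HTRF read after EDTA quench and Tb-labelled p-S133 antibody detection. Enzyme (0.035 nM solution) and substrate (0.1 μM fluorescein-CREBtide solution containing 5 mM ATP) reacted for 1 h at 25°C. The buffer was HEPES 50 mM pH 7.8 with 10 mM MgCl2, 5 mM DTT and 0.005% Tween20.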

Test [1] deals with LNCaP cells (human prostate tumor cell line). Kind of test: Akt LNCaP proliferation assay (MTS). The class given is cell-based. Conditions: 48 hours. A digest of the protocol: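 Cells plated at 10,000/well in RPMI with 2% FBS overnight at 37° C., 5% CO2, then exposed to compound at 1000 nM to 0.5 nM (3-fold dilutions) for 48 hours. Viable cells measured by MTS colorimetric read-out after 2 hours; IC50 taken as concentration giving 50% inhibition of total proliferation.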

A further test has as its target T4, Full length Akt1 (Homo sapiens, UniProt P31749).
T4 construct: Full length Akt1 (cat #P2999); purchased PerkinElmer P2999
Put plainly: In vitro Akt kinase enzymatic assay (HTRF), Akt1. Conditions: 0.4 nM Akt1, substrate solution with 5 mM ATP, 25° C. 1 hr. It counts as biochemical. A digest of the protocol: as §1

The mark [2] stands for this setting: 2% fetal bovine serum, class symbols.

T1 sequence (Q9Y243 whole entry): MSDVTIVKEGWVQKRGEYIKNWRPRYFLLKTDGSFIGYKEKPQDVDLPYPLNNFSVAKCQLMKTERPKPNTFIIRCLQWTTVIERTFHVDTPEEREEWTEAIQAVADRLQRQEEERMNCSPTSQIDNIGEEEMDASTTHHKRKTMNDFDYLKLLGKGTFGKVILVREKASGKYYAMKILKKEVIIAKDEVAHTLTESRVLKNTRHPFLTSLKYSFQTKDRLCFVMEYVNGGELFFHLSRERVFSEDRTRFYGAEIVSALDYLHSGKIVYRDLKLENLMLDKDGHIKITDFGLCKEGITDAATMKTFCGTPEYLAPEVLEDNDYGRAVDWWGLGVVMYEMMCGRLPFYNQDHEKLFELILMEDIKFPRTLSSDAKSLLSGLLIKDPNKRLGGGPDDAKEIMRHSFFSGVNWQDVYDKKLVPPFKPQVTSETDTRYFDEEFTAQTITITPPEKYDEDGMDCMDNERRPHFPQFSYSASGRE
T4 sequence (P31749 whole entry): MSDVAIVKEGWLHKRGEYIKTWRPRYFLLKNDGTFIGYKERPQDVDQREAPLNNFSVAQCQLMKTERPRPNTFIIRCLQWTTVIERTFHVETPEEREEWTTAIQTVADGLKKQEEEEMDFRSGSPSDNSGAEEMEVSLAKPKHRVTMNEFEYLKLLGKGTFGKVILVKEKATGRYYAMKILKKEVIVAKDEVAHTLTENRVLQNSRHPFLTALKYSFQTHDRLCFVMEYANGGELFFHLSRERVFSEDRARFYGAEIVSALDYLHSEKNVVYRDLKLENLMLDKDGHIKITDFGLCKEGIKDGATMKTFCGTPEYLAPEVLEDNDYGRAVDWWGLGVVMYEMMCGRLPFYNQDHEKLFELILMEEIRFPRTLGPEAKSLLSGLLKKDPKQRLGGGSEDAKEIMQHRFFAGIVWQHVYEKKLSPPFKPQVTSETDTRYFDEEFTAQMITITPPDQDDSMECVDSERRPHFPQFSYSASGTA

Consider `CC(C)Cn1nccc1-c1ccc2c(c1)CN([C@H](CN)Cc1cc(F)cc(F)c1)C2=O` [Example 130, 2-[(1S)-2-amino-1-(3,5-difluorobenzyl)ethyl]-5-(1-isobutyl-1H-pyrazol-5-yl)isoindolin-1-one], for which the 50% inhibitory concentration (IC50) is above 5000 nM against Full length Akt3; above 5000 nM against Full length Akt2; above 5 µM on Full length PKA; above 1000 nM in test [1] (given as a bound, final concentrations 1000 nM to 0.5 nM); 500 to 5000 nM against Full length Akt1.

For `Cn1ncc(Br)c1-c1ccc2c(c1)CN([C@H](CN)Cc1ccccc1)C2=O` [Example 57, 2-[(1S)-2-amino-1-benzyl-ethyl]-5-(4-bromo-1-methyl-1H-pyrazol-5-yl)isoindolin-1-one], the IC50 is below 500 nM on Full length Akt3; below 500 nM on Full length Akt2; above 5 µM against Full length PKA; below 500 nM in test [1] (setting [2]); below 500 nM against Full length Akt1.

For the compound `Cn1ncc(Br)c1-c1cc2c(cn1)C(=O)N([C@H](CN)Cc1cc(F)cc(F)c1)C2` [Example 104, 2-[(1S)-2-amino-1-(3,5-difluoro-benzyl)ethyl]-6-(4-broro-1-methyl-1H-pyrazol-5-yl)-1,2-dihydro-3H-pyrrolo[3,4-c]pyridin-3-one], the IC50 is below 500 nM against Full length Akt3; below 500 nM against Full length Akt2; 0.5 to 5 µM on Full length PKA; below 500 nM in test [1] (setting [2]); below 500 nM against Full length Akt1.

Turning to `Cn1nccc1-c1ccc2c(c1)CN(C(CN)c1cccc(F)c1)C2=O` (stereo not drawn) [Example 117, 2-[2-amino-1-(3-fluorophenyl)ethyl]-5-(1-methyl-1H-pyrazol-5-yl)isoindolin-1-one], the IC50 against Full length Akt3 was 500 to 5000 nM; against Full length Akt2, below 500 nM; at Full length PKA, 0.5 to 5 µM; in test [1] (setting [2]) it was below 500 nM; at Full length Akt1 it was below 500 nM.

As for `CCCOCc1cnn(C)c1-c1cc2c(cn1)C(=O)N([C@H](CN)Cc1cc(F)cc(F)c1)C2` [Example 107, 2-[(1S)-2-amino-1-(3,5-difluoro-benzyl)ethyl]-6-[4-(1-propoxy-methyl)-1-methyl-1H-pyrazol-5-yl]-1,2-dihydro-3H-pyrrolo[3,4-c]pyridin-3-one], the IC50 is below 500 nM against Full length Akt3; below 500 nM on Full length Akt2; above 5 µM against Full length PKA; below 500 nM in test [1] (setting [2]); below 500 nM on Full length Akt1.

Take `COCc1cnn(C)c1-c1ccc2c(c1)CN([C@H](CN)CC1CCCCC1)C2=O` [Example 133, 2-[(1S)-2-amino-1-(cyclohexylmethyl)ethyl]-5-[4-(methoxymethyl)-1-methyl-1H-pyrazol-5-yl]isoindolin-1-one]: the IC50 against Full length Akt3 is 500 to 5000 nM; at Full length Akt2, 500 to 5000 nM; at Full length PKA it was above 5 µM; in test [1] (setting [2]), 500 to 5000 nM; against Full length Akt1, below 500 nM.

On to `Cn1nccc1-c1cc2c(cn1)C(=O)N([C@H](CN)CC1CCCCC1)C2` [Example 134, 2-[(1S)-2-amino-1-(cyclohexylmethyl)ethyl]-6-(1-methyl-1H-pyrazol-5-yl)-1,2-dihydro-3H-pyrrolo[3,4-c]pyridin-3-one], for which the IC50 against Full length Akt3 was below 500 nM; against Full length Akt2 it was below 500 nM; at Full length PKA it was below 0.5 µM; in test [1] (setting [2]) it was below 500 nM; at Full length Akt1 it was below 500 nM.

For the compound `Cn1ncc(Cl)c1-c1ccc2c(c1)CN([C@H](CN)Cc1ccsc1)C2=O` [Example 68, 2-[(1S)-2-amino-1-(3-thienylmethyl)ethyl]-5-(4-chloro-1-methyl-1H-pyrazol-5-yl)isoindolin-1-one], the IC50 against Full length Akt3 was below 500 nM; against Full length Akt2 it was below 500 nM; against Full length PKA, 0.5 to 5 µM; in test [1] (setting [2]) it was below 500 nM; on Full length Akt1 it was below 500 nM.

For `Cn1ncc(Cl)c1-c1ccc2c(c1)CN([C@H](CN)Cc1cc(F)cc(F)c1)C2=O` [Example 41, 2-[(1S)-2-amino-1-(3,5-difluorobenzyl)ethyl]-5-(4-chloro-1-methyl-1H-pyrazol-5-yl)isoindolin-1-one], the half-inhibitory concentration (IC50) was below 500 nM against Full length Akt3; below 500 nM at Full length Akt2; 0.5 to 5 µM against Full length PKA; below 500 nM in test [1] (setting [2]); below 500 nM against Full length Akt1.

As to `Cn1ncc(Cl)c1-c1ccc2c(c1)CN([C@H](CN)Cc1ccccc1F)C2=O` (stereo in doubt) [Example 60, 2-[2-amino-1-(2-fluorobenzyl)ethyl]-5-(4-chloro-1-methyl-1H-pyrazol-5-yl)isoindolin-1-one], the concentration for half-maximal inhibition (IC50) on Full length Akt3 was below 500 nM; on Full length Akt2, below 500 nM; on Full length PKA, above 5 µM; in test [1] (setting [2]) it was below 500 nM; against Full length Akt1, below 500 nM.

`Cn1nccc1-c1ccc2c(c1)CN([C@H](CN)Cc1cccc(F)c1)C2=O` [Example 1, 2-[(1S)-2-Amino-1-(3-fluorobenzyl)ethyl]-5-(1-methyl-1H-pyrazol-5-yl)isoindolin-1-one]: the concentration for half-maximal inhibition (IC50) was below 500 nM against Full length Akt3; below 500 nM on Full length Akt2; 0.5 to 5 µM on Full length PKA; below 500 nM in test [1] (setting [2]); below 500 nM on Full length Akt1.

For the compound `CCn1nccc1-c1ccc2c(c1)CN([C@H](CN)Cc1cccc(F)c1)C2=O` [Example 127, 2-[(1S)-2-amino-1-(3-fluorobenzyl)ethyl]-5-(1-ethyl-1H-pyrazol-5-yl)isoindolin-1-one], the 50% inhibitory concentration (IC50) at Full length Akt3 was below 500 nM; against Full length Akt2 it was below 500 nM; against Full length PKA it was above 5 µM; in test [1] (setting [2]) it was below 500 nM; on Full length Akt1 it was below 500 nM.

Usually IC50 stands for the concentration at which inhibition is half-maximal.
